From DBAASP
In brackets after ≈: the same amount, converted by molar mass. Several values for one entry are separate records, joined by “and”; a condition that tells them apart may be missing. Equal values may be shown once.

Key:
Assay in all cases: ≥ marks a high value that may be exact or a test limit, other limits are often not marked, values filed in µg/mL are converted to µM
[1] = tested on: Bacillus megaterium CGMCC 1.0459
Bacillus sp. DM-1 = tested on: Bacillus sp. DM-1
[2] = tested on: Bacillus subtilis CGMCC 1.2428
Beauveria sp. = tested on: Beauveria sp.
[3] = tested on: Micrococcus luteus CGMCC 1.0290
Saccharomyces cerevisiae = tested on: Saccharomyces cerevisiae
Escherichia coli BL21AI = tested on: Escherichia coli BL21AI
[4] = tested on: Micrococcus luteus ATCC 10240
[5] = tested on: Bacillus subtilis KCTC 3068
[6] = tested on: Candida albicans KCTC 7965
[7] = tested on: Escherichia coli KCTC 1682
[8] = tested on: Pseudomonas aeruginosa KCTC 1637
[9] = tested on: Salmonella typhimurium KCTC 1926
[10] = tested on: Staphylococcus aureus KCTC 1621
[11] = tested on: Staphylococcus epidermidis KCTC 1917
[12] = tested on: Bacillus subtilis KCTC 1918
[13] = tested on: Candida albicans TIMM 1768
[14] = tested on: Saccharomyces cerevisiae KCTC 7296
[15] = tested on: Staphylococcus epidermidis KCTC 3096
[16] = tested on: Trichosporon beigelii KCTC 7707
Candida albicans = tested on: Candida albicans
[17] = tested on: Escherichia coli DH5alpha
[18] = tested on: Penicillium digitatum PHI-26
[19] = tested on: Saccharomyces cerevisiae FY1679
[20] = tested on: Bacillus megaterium ATCC 19213
[21] = tested on: Bacillus subtilis NBRC 3513
[22] = tested on: Staphylococcus aureus NBRC 12732
[23] = tested on: Staphylococcus epidermidis NBRC 12933

Compound: CC(C)[C@H](NC(=O)[C@H](CS)NC(=O)[C@H](CC(=O)O)NC(=O)CNC(=O)[C@H](CC(N)=O)NC(=O)[C@H](CCCCN)NC(=O)[C@H](CS)NC(=O)[C@H](CCCCN)NC(=O)CNC(=O)CN)C(=O)N[C@@H](CS)C(=O)N[C@@H](CCCN=C(N)N)C(N)=O [GGKCKNGDCVCR]
- MIC [1]: 8.93 µM (≈ 11.1 µg/mL)
- MIC (Bacillus sp. DM-1): ≥ 33.8 µM
- MIC [2]: 10.8 µM (≈ 13.3 µg/mL)
- MIC (Beauveria sp.): 17.7 µM (≈ 21.9 µg/mL)
- MIC [3]: 26 µM (≈ 32.2 µg/mL)
- MIC (Saccharomyces cerevisiae): ≥ 52 µM

Compound: CC[C@H](C)[C@H](NC(=O)[C@@H]1CCCN1C(=O)[C@H](CCCN=C(N)N)NC(=O)[C@@H]1CCCN1C(=O)[C@H](Cc1cnc[nH]1)NC(=O)[C@H](CO)NC(=O)[C@@H](NC(=O)[C@@H]1CCCN1C(=O)[C@H](CCCN=C(N)N)NC(=O)[C@@H]1CCCN1C(=O)[C@H](CO)NC(=O)[C@H](Cc1ccc(O)cc1)NC(=O)[C@@H]1CCCN1C(=O)[C@H](CCCN=C(N)N)NC(=O)[C@@H]1CCCN1C(=O)[C@H](CCCCN)NC(=O)CN)[C@@H](C)O)C(=O)N[C@@H](CCCN=C(N)N)C(=O)N[C@H](C(N)=O)C(C)C [GKPRPYSPRPTSHPRPIRV]
- MIC (Escherichia coli BL21AI): 29.1 µM (≈ 64 µg/mL)
- MIC [4]: 0.455 µM (≈ 0.999 µg/mL)

Compound: CC(C)C[C@H](NC(=O)[C@H](CC(C)C)NC(=O)[C@H](CCCCN)NC(=O)[C@H](CCCCN)NC(=O)[C@H](CC(C)C)NC(=O)[C@H](CC(C)C)NC(=O)[C@H](CCCCN)NC(=O)[C@H](CC(C)C)NC(=O)[C@H](Cc1c[nH]c2ccccc12)NC(=O)[C@H](CCCCN)NC(=O)[C@H](CCCCN)NC(=O)[C@H](CC(C)C)NC(=O)[C@H](CC(C)C)NC(=O)[C@H](CCCCN)NC(=O)[C@H](CCCCN)NC(=O)[C@H](CC(C)C)NC(=O)[C@@H](N)CCCCN)C(=O)N[C@@H](CCCCN)C(N)=O [KLKKLLKKWLKLLKKLLK]
- MIC [5]: 4 µM (≈ 9.05 µg/mL)
- MIC [6]: 11.3 µM (≈ 25.6 µg/mL)
- MIC [7]: 8 µM (≈ 18.1 µg/mL)
- MIC [8]: 8 µM (≈ 18.1 µg/mL)
- MIC [9]: 4 µM (≈ 9.05 µg/mL)
- MIC [10]: 8 µM (≈ 18.1 µg/mL)
- MIC [11]: 8 µM (≈ 18.1 µg/mL)

Compound: CC(C)C[C@H](NC(=O)[C@H](CCCCN)NC(=O)[C@H](CCCCN)NC(=O)[C@H](CC(C)C)NC(=O)[C@H](CC(C)C)NC(=O)[C@H](CCCCN)NC(=O)[C@H](CCCCN)NC(=O)[C@H](CC(C)C)NC(=O)[C@H](CC(C)C)NC(=O)[C@@H]1CCCN1C(=O)[C@@H](N)CCCCN)C(N)=O [KPLLKKLLKKL]
- MIC [12]: 6.3 µM (≈ 8.32 µg/mL)
- MIC [13]: 25 µM (≈ 33 µg/mL)
- MIC [8]: 3.1 µM (≈ 4.09 µg/mL)
- MIC [14]: 12.5 µM (≈ 16.5 µg/mL)
- MIC [9]: 0.4 µM (≈ 0.528 µg/mL)
- MIC [15]: 6.3 µM (≈ 8.32 µg/mL)
- MIC [16]: 6.3 µM (≈ 8.32 µg/mL)

Compound: CC(=O)N[C@@H](CCCN=C(N)N)C(=O)N[C@@H](CCCCN)C(=O)N[C@@H](CCCCN)C(=O)N[C@@H](Cc1c[nH]c2ccccc12)C(=O)N[C@@H](Cc1ccccc1)C(=O)N[C@@H](Cc1c[nH]c2ccccc12)C(N)=O [RKKWFW]
- MIC (Candida albicans): 132 µM (≈ 130 µg/mL)
- MIC [17]: ≥ 32 µM
- MIC [18]: 4 µM and 6 µM
- MIC [19]: ≥ 32 µM

Compound: CC(C)C[C@H](NC(=O)[C@H](CCCCN)NC(=O)[C@H](CC(C)C)NC(=O)[C@H](CC(C)C)NC(=O)[C@H](Cc1c[nH]c2ccccc12)NC(=O)[C@@H](N)CCCN=C(N)N)C(=O)NCC(=O)N[C@@H](Cc1cnc[nH]1)C(=O)N[C@@H](Cc1cnc[nH]1)C(=O)NCC(=O)N[C@@H](CCCN=C(N)N)C(=O)N[C@@H](C)C(=O)N1CCC[C@H]1C(=O)N1CCC[C@H]1C(=O)O [RWLLKLGHHGRAPP]
- MIC [20]: ≥ 64 µM
- MIC [21]: ≥ 128 µM
- MIC [22]: ≥ 128 µM
- MIC [23]: ≥ 128 µM
